According to patent publication USRE47689E1, “Compounds for treating spinal muscular atrophy” (PTC Therapeutics, Inc., priority 2011, dated 2019):

How the values were obtained:
[1] = system: SMN2 minigene (full length SMN2 minigene mRNA containing SMN2 exon 7); test: SMN2 minigene mRNA splicing RT-qPCR assay in cultured cells; format: cell-based, human; conditions: Homo sapiens, HEK293-H; HEK293H cells stably transfected with SMN2-A minigene; 24 hours; 7-point concentration curve; 1.5-fold relative to vehicle-treated cells; read-out: EC1.5x for production of full length SMN2 mRNA
Outline: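 HEK293H cells stably carrying the SMN2-A minigene treated 24 h at 37° C with compound (DMSO, 200× stock), then lysed. Multiplex RT-qPCR (SMN primers 0.4 μM final; 40 cycles) measures full-length exon 7-containing minigene mRNA, normalized to GAPDH and to vehicle; EC1.5x derived and binned by stars.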

Smn protein = Smn protein assay in cultured cells (SMN HTRF); format: cell-based, human; conditions: 48 hours; for maximum fold (Fold) increase of Smn protein: SMA patient fibroblast cells, 7-point concentration data, fold increase relative to vehicle control (SMN HTRF); for EC1.5x (concentration giving 1.5-fold Smn protein increase): SMA Type 1 patient fibroblast cells (GM03813), 7-point concentration curve, SMN HTRF, concentration producing 1.5 times Smn protein vs DMSO vehicle control, read-out: EC1.5x for Smn protein expression
Outline: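 Lysates in RIPA with protease inhibitors are incubated overnight at room temperature with HTRF anti-SMN antibodies. EC1.5x is derived from fold increase in ΔF over vehicle.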

SMILES	EC (1.5-fold) [1]	maximum fold (Fold) increase of Smn protein (Smn protein)	EC1.5x (concentration giving 1.5-fold Smn protein increase) (Smn protein)
COCCN1CCN(c2ccc3cc(-c4cc5c(C)nc(C)cc5s4)c(=O)oc3c2)CC1 [Compound 820, 3-(4,6-dimethylthieno[3,2-c]pyridin-2-yl)-7-[4-(2-methoxyethyl)piperazin-1-yl]-2H-chromen-2-one]	0.3 to 1 µM	** (fold increase between >1.2 and ≤1.35)	
CCc1nc(C)cn2cc(-c3cc4ccc(N5CCNCC5)cc4oc3=O)nc12 [Compound 824, 3-(8-ethyl-6-methylimidazo[1,2-a]pyrazin-2-yl)-7-(piperazin-1-yl)-2H-chromen-2-one]	< 0.1 µM	**** (fold increase between >1.5 and ≤1.65)	< 300 nM
Cc1cc2oc(-c3cc4ccc(N5CCNCC5)cc4oc3=O)cc2c(C)n1 [Compound 831, 3-(4,6-dimethylfuro[3,2-c]pyridin-2-yl)-7-(piperazin-1-yl)-2H-chromen-2-one]	1 to 3 µM	* (maximum fold increase of ≤1.2)	
Cc1cc2oc(-c3cc4ccc(N5CCN(C)CC5)cc4oc3=O)cc2c(C)n1 [Compound 832, 3-(4,6-dimethylfuro[3,2-c]pyridin-2-yl)-7-(4-methylpiperazin-1-yl)-2H-chromen-2-one]	1 to 3 µM	* (maximum fold increase of ≤1.2)	
CCN1CCN(c2ccc3cc(-c4cn5cc(C)nc(C)c5n4)c(=O)oc3c2)CC1C (stereo not drawn) [Compound 852, 3-(6,8-dimethylimidazo[1,2-a]pyrazin-2-yl)-7-(4-ethyl-3-methylpiperazin-1-yl)-2H-chromen-2-one]	< 0.1 µM	**** (fold increase between >1.5 and ≤1.65)	< 300 nM
Cc1cn2cc(-c3cc4ccc(CCNCCO)cc4oc3=O)nc2c(C)n1 [Compound 870, 3-(6,8-dimethylimidazo[1,2-a]pyrazin-2-yl)-7-{2-[(2-hydroxyethyl)amino]ethyl}-2H-chromen-2-one]	< 0.1 µM	**** (fold increase between >1.5 and ≤1.65)	< 300 nM
Cc1cn2cc(-c3cc4ccc(C5CCN(C6COC6)CC5)cc4oc3=O)nc2cn1 [Compound 878, 3-(6-methylimidazo[1,2-a]pyrazin-2-yl)-7-[1-(oxetan-3-yl)piperidin-4-yl]-2H-chromen-2-one]	< 0.1 µM	***** (fold increase >1.65)	300 to 1000 nM
Cc1cn2cc(-c3cc4ccc(CCCNCCO)cc4oc3=O)nc2c(C)n1 [Compound 879, 3-(6,8-dimethylimidazo[1,2-a]pyrazin-2-yl)-7-{3-[(2-hydroxyethyl)amino]propyl}-2H-chromen-2-one]	< 0.1 µM	**** (fold increase between >1.5 and ≤1.65)	< 300 nM
CCCN1CCC(c2ccc3cc(-c4cn5cc(C)ncc5n4)c(=O)oc3c2)CC1 [Compound 887, 3-(6-methylimidazo[1,2-a]pyrazin-2-yl)-7-(1-propylpiperidin-4-yl)-2H-chromen-2-one]	< 0.1 µM	***** (fold increase >1.65)	< 300 nM
Cc1cn2cc(-c3cc4ccc(N5CCN(CCO)[C@@H](C)C5)cc4oc3=O)nc2c(C)n1 [Compound 888, 3-(6,8-dimethylimidazo[1,2-a]pyrazin-2-yl)-7-[(3S)-4-(2-hydroxyethyl)-3-methylpiperazin-1-yl]-2H-chromen-2-one]	< 0.1 µM	***** (fold increase >1.65)	< 300 nM
Cc1cn2cc(-c3cc4ccc(OCCN5CC[C@H](O)C5)cc4oc3=O)nc2c(C)n1 [Compound 954, 3-(6,8-dimethylimidazo[1,2-a]pyrazin-2-yl)-7-{2-[(3S)-3-hydroxypyrrolidin-1-yl]ethoxy}-2H-chromen-2-one]	< 0.1 µM	***** (fold increase >1.65)	< 300 nM
COCCNCCOc1ccc2cc(-c3cn4cc(C)nc(C)c4n3)c(=O)oc2c1 [Compound 960, 3-(6,8-dimethylimidazo[1,2-a]pyrazin-2-yl)-7-{2-[(2-methoxyethyl)amino]ethoxy}-2H-chromen-2-one]	< 0.1 µM	*** (fold increase between >1.35 and ≤1.5)	1000 to 3000 nM
Cc1cn2cc(-c3cc4ccc(N5CC(CN)C5)cc4oc3=O)nc2c(C)n1 [Compound 963, 7-[3-(aminomethyl)azetidin-1-yl]-3-(6,8-dimethylimidazo[1,2-a]pyrazin-2-yl)-2H-chromen-2-one]	0.3 to 1 µM	*** (fold increase between >1.35 and ≤1.5)	
Cc1cn2cc(-c3cc4ccc(N5CC[C@@H](CN)C5)cc4oc3=O)nc2c(C)n1 [Compound 964, 7-[(3S)-3-(aminomethyl)pyrrolidin-1-yl]-3-(6,8-dimethylimidazo[1,2-a]pyrazin-2-yl)-2H-chromen-2-one]	0.1 to 0.3 µM	** (fold increase between >1.2 and ≤1.35)	
Cc1cn2cc(-c3cc4ccc(N5CC6(CN(C)C6)C5)cc4oc3=O)nc2c(C)n1 [Compound 972, 3-(6,8-dimethylimidazo[1,2-a]pyrazin-2-yl)-7-(6-methyl-2,6-diazaspiro[3.3]hept-2-yl)-2H-chromen-2-one]	0.3 to 1 µM	*** (fold increase between >1.35 and ≤1.5)	3000 to 10000 nM
Cc1cn2cc(-c3cc4ccc(N5CCN6C(=O)CCC6C5)cc4oc3=O)nc2c(C)n1 (stereo not drawn) [Compound 973, 2-[3-(6,8-dimethylimidazo[1,2-a]pyrazin-2-yl)-2-oxo-2H-chromen-7-yl]hexahydropyrrolo[1,2-a]pyrazin-6(2H)-one]	3 to 30 µM	* (maximum fold increase of ≤1.2)	
Cc1cn2cc(-c3cc4ccc(N5CCC(C#N)CC5)cc4oc3=O)nc2c(C)n1 [Compound 974, 1-[3-(6,8-dimethylimidazo[1,2-a]pyrazin-2-yl)-2-oxo-2H-chromen-7-yl]piperidine-4-carbonitrile]	3 to 30 µM	** (fold increase between >1.2 and ≤1.35)	
Cc1cn2cc(-c3cc4ccc(N5CCC(O)CC5)cc4oc3=O)nc2c(C)n1 [Compound 975, 3-(6,8-dimethylimidazo[1,2-a]pyrazin-2-yl)-7-(4-hydroxypiperidin-1-yl)-2H-chromen-2-one]	0.3 to 1 µM	*** (fold increase between >1.35 and ≤1.5)	
Cc1cn2cc(-c3cc4ccc(N5CCC6(CC5)CNC6)cc4oc3=O)nc2c(C)n1 [Compound 976, 7-(2,7-diazaspiro[3.5]non-7-yl)-3-(6,8-dimethylimidazo[1,2-a]pyrazin-2-yl)-2H-chromen-2-one]	< 0.1 µM	*** (fold increase between >1.35 and ≤1.5)	1000 to 3000 nM
Cc1cn2cc(-c3cc4ccc(N5CC6(CC(N)C6)C5)cc4oc3=O)nc2c(C)n1 [Compound 977, 7-(6-amino-2-azaspiro[3.3]hept-2-yl)-3-(6,8-dimethylimidazo[1,2-a]pyrazin-2-yl)-2H-chromen-2-one]	1 to 3 µM	* (maximum fold increase of ≤1.2)	
CN1CCN(c2ccc3cc(-c4ccc5nccn5c4)c(=O)oc3c2)CC1 [Compound 978, 3-(imidazo[1,2-a]pyridin-6-yl)-7-(4-methylpiperazin-1-yl)-2H-chromen-2-one]	1 to 3 µM	** (fold increase between >1.2 and ≤1.35)	
O=c1oc2cc(N3CCN4CCC[C@H]4C3)ccc2cc1-c1ccc2nccn2c1 [Compound 979, 7-[(8aS)-hexahydropyrrolo[1,2-a]pyrazin-2(1H)-yl]-3-(imidazo[1,2-a]pyridin-6-yl)-2H-chromen-2-one]	1 to 3 µM	** (fold increase between >1.2 and ≤1.35)	
O=c1oc2cc(N3CCNCC3)ccc2cc1-c1ccc2nccn2c1 [Compound 980, 3-(imidazo[1,2-a]pyridin-6-yl)-7-(piperazin-1-yl)-2H-chromen-2-one]	0.3 to 1 µM	*** (fold increase between >1.35 and ≤1.5)	
C[C@H]1CN(c2ccc3cc(-c4ccc5nccn5c4)c(=O)oc3c2)CCN1 [Compound 981, 3-(imidazo[1,2-a]pyridin-6-yl)-7-[(3S)-3-methylpiperazin-1-yl]-2H-chromen-2-one]	0.1 to 0.3 µM	**** (fold increase between >1.5 and ≤1.65)	1000 to 3000 nM
Cc1cn2cc(-c3cc4ccc(N5CCN(C)CC5)cc4oc3=O)cc(F)c2n1 [Compound 982, 3-(8-fluoro-2-methylimidazo[1,2-a]pyridin-6-yl)-7-(4-methylpiperazin-1-yl)-2H-chromen-2-one]	< 0.1 µM	***** (fold increase >1.65)	< 300 nM
Cc1cn2cc(-c3cc4ccc(N5CCN6CCC[C@H]6C5)cc4oc3=O)cc(F)c2n1 [Compound 983, 3-(8-fluoro-2-methylimidazo[1,2-a]pyridin-6-yl)-7-[(8aS)-hexahydropyrrolo[1,2-a]pyrazin-2(1H)-yl]-2H-chromen-2-one]	< 0.1 µM	***** (fold increase >1.65)	< 300 nM
